Where “and” joins values, the source holds several entries; their conditions need not be identical. Identical values can stand only once. Like-named read-outs stand apart in the source and are kept apart here.
Columns and labels:
Aβ plaques = experiment: Small-animal PET of mouse brain with [^11C]PiB, cerebellum as reference region; type: in vivo; conditions: for BPND (MRTM2, Ichise et al., 2003) mean ± SD: neocortex target, cerebellum reference; for PET BPND neocortex: [^3H]PiB/[^11C]PiB cocktail, 30 min scan
Source text: Most of the small-animal PET data was acquired with a microPET FOCUS F120 scanner (Siemens Medical Solutions, Malvern, USA). In the combined multi-modal experiment PET data for the four animals was acquired with a docked Siemens Inveon PET/CT system (Siemens Medical Solutions, Knoxville, USA), [66], [67].
After induction of anesthesia and placement of the catheter systems, the animals were placed with their heads in the center of the field of view and were fixed in the scanner in prone head first position (HFP). At the beginning of the PET scanning procedure, a 9 min transmission scan (^68Ge rod source, Focus F120) or CT scan (Inveon) was performed in all animals.
[^11C]PiB was given via the catheter system intravenously in a slow bolus, followed by flushing with isotonic saline solution such that the total applied volume was 0.22±0.06 ml. The amount of injected activity was controlled real-time with registered prompts such that they ranged between 150000 to 200000 at the end of [^11C]PiB application, ensuring a dead time <5% at 30 min p.i.. The radioactivity in the syringe was measured immediately before and after injection with a Capintec CRC 15R (Capintec Inc, NJ, USA) dose calibrator. The time between measurements was 2 to 3 min.
Dynamic data acquisition was performed in 3D listmode for 30 or 60 min starting immediately with injection of the tracer. The emission data were normalized and corrected for decay and dead time. The resulting sinograms were reconstructed with FBP (filtered back-projection using a ramp filter with a cut-off at the Nyquist frequency) into 2, 3, 6, 12, 60 and 120 frames of equal length used for motion correction, ratio measurements and image production and 52 frames (24×10 s, 12×30 s, 10×120 s, 6×300 s) and 162 frames (120×1 s, 24×10 s, 8×30 s, 10×300 s) for time-activity-curve (TAC) generation. The image volume consisted of 128×128×95 voxels, with a size of 0.866×0.866×0.796 mm^3 per voxel for the Focus F120 scanner and 128×128×159 voxels, with a size of 0.776×0.776×0.796 mm^3 per voxel for the Inveon scanner.
To assess varying PiB retention of individual animals within the study collective and to verify the consistency of results, three quantification methods were used similar to Maeada et al.. First, [^11C]PiB uptake in the target region was divided by [^11C]PiB uptake in the cerebellum as measured in a static 10 min-frame (20–30 min). Second, the tissue ratio methods as proposed by Ito et al. were calculated. Third, the multilinear reference tissue model 2 (MRTM2, [45]) was fitted to cortex time-activity curves (TACs) (merged neocortex) after reduction of parameters by estimating individual efflux rate constants for [^11C]PiB from the reference region (k2′) with the MRTM [45] and four regional cortical time-activity curves.
Parametric images of [^11C]PiB retention (BPND maps (MRTM2)) were generated for four representative mice (Figure 2 and S1). For all analyses, the cerebellum was used as the reference region. To quantify the dynamic data, TACs with high initial time resolution (162 frames: 120×1 s, 24×10 s, 8×30 s, 10×300 s) were used (Figure 1).
Then, the radioactivity of the whole animal was measured in a Capintec dose calibrator, the animal killed by decapitation, the whole brain taken out and blood drawn for biodistribution and radioactivity measurement. One half of the brain was dissected for regional brain biodistribution (olfactory system, telencephalon, cerebellum and remaining brain structures (diencephalon, midbrain)) and deep-frozen immediately after gamma counting for later ELISA analysis of soluble and insoluble Aβx–40 and Aβx–42. […]

[1] = tested on: postmortem human brain tissue homogenate (temporal cortex); experiment: Radioligand saturation binding assay with [^3H]PiB, human brain homogenate
Protocol: (§1) The frozen mouse hemi-forebrains (50 mg/ml) and human brain samples (100 mg/ml) for the radioligand binding assay were first prepared in tissue homogenization buffer (20 mM Tris base, 1 mM EDTA, 1 mM EGTA, cOmplete Protease Inhibitor Cocktail (Roche Applied Science, Mannheim, Germany)) using a 30 ml hand glass homogenizer (Dounce type, tight fit) (Sartorius Stedim Biotech, Göttingen, Germany) which was used for subsequent ELISA analysis. The stocks were then supplemented with 250 mM sucrose and stored at −70°C for later tracer binding analysis. All other tissue samples were processed for ELISA as reported by Willuweit et al.
(§2) All brain homogenates were diluted in PBE buffer (10 mM dibasic sodium phosphate, 1 mM EDTA, 10% EtOH) to a final concentration of 1000 µg/ml. Synthetic human Aβ1–40 fibrils (EZBioLab, Carmel, IN, USA) were prepared as described by Lockhart et al. (0.5 mg/ml, pH 7.4, 200 rpm at 37°C for 48 h) and were used as positive control at a final concentration of 10 µg/ml (Figure S8).
(§3) Nonspecific binding was determined in the presence of 3 µM unlabeled PiB (ABX, Radeberg, Germany) including 1 h preincubation. Each tissue sample was deployed on two 96-well cell culture plates (Greiner Bio-One, Frickenhausen, Germany) to a final reaction volume of 280 µl per well using 8-channel electronic pipettes (Mettler Toledo, Giessen, Germany) giving 24 octuples of data points per sample.
(§4) The bound and free fractions were seperated by vacuum filtration through 0.3% polyethyleneimine-pretreated GF/B glass filtermats (GE Healthcare/Whatman, Dassel, Germany) using a semi-automated Harvester 96 Mach II M (Tomtec, Hamden, CT, USA). A constant automated 5-cycle pulse-wash program (optimized for flow rate and volume) guaranteed stable harvesting with 1.2 ml PBE washing per well at 2 psi.
(§5) Filters were cut and incubated in Aquasafe300plus scintillator (Zinsser Analytic, Frankfurt, Germany) for 36 h before counting in a Wallac WinSpectral 1414 liquid scintillation counter (PerkinElmer, Rodgau, Germany).
(§6) The specific binding signal under these assay conditions was between 56% (human) and 91% (synthetic protein). Data were analyzed using GraphPad Prism version 5.0 d for Mac (GraphPad Software, La Jolla, CA, USA) to estimate the apparent dissociation constant (Kd), the maximal number of binding sites (Bmax) and the in vitro binding potential (BP) using the one-site and two-site global analysis models.
(§7) Division by Kd in nanomolar units directly results in BP.

[2] = tested on: mouse brain tissue homogenate (APP/PS1 hemi-forebrain); experiment: Radioligand saturation binding assay with [^3H]PiB, mouse brain homogenate
Protocol: as §1, §2, §3, §4, §5, §6, §7

APP/PS1 mouse brain = tested on: APP/PS1 mouse brain; parameters: method as in PMID 16291932; conditions: very old hemizygous APP/PS1 animals; classical Scatchard analysis; cited from earlier work
human brain = tested on: human brain; parameters: method as in PMID 16291932; conditions: humans; cited from earlier work

**Q.** Which “BPND (MRTM2, Ichise et al., 2003) mean ± SD” value (Aβ plaques; ctl-old (N = 5)) does the source give for `[11CH3]Nc1ccc(-c2nc3ccc(O)cc3s2)cc1` [[^11C]PiB, N-[^11C-methyl]-6-OH-BTA-1] here?
**A.** Its value is -0.08 ± 0.01.

**Q.** What about the “PET BPND neocortex” value (Aβ plaques; individual animals AD1, AD2 (tgtg-young, 9 months)) of the same compound?
**A.** The value was 0.06.

**Q.** What about the “PET BPND neocortex” value (Aβ plaques; individual animals CTL1, CTL2 (ctl-young)) of the same compound?
**A.** The value was −0.06 and −0.07.

**Q.** What about the “BPND (MRTM2, Ichise et al., 2003) mean ± SD” value (Aβ plaques; tg-old (N = 5)) of the same compound?
**A.** The value was 0.28 ± 0.06.

**Q.** And the “BPND (MRTM2, Ichise et al., 2003) mean ± SD” value (Aβ plaques; tgtg-old (N = 7))?
**A.** The value was 0.51 ± 0.13.

**Q.** What about the “BPND (MRTM2, Ichise et al., 2003) mean ± SD” value (Aβ plaques; tgtg-young (N = 5)) of the same compound?
**A.** The value was 0.12 ± 0.04.

**Q.** Which results are given for `CNc1ccc(-c2nc3ccc(O)cc3s2)cc1` [[^3H]PiB]?
**A.** in vitro binding potential (BP) ([1]; huAD-0 (mild human AD, Cerad-0, Braak II), single binding site model): ~0; in vitro binding potential (BP) ([1]; huAD-C (severe human AD, Cerad-C, Braak V), single binding site model): 38 and 38.2±4.7 and 38.2; tracer concentration at which saturation binding was reached ([1]; huAD-C homogenate): around 8 nM; Bmax ([1]; huAD-C homogenate, single binding site model): 200 ± 12 fmol/mg; Kd ([1]; huAD-C homogenate, single binding site model, read-out: Kd): 5.2 ± 0.9 nM; Bmax of the high-affinity component ([1]; huAD-C, two site binding model): 156.7 ± 7.3 fmol/mg; Kd ([1]; huAD-C, two site binding model, read-out: Kd of the high-affinity component): 3.4 ± 1.4 nM; in vitro binding potential (BP) ([1]; huCTL (human control brain, Cerad-0, Braak I), single binding site model): ~0; in vitro binding potential (BP) ([2]; mouse control brain (msCTL), total binding not different to nonspecific binding): ~0; in vitro binding potential (BP) ([2]; tg-old mouse brain tissue, single binding site model): 11.9±0.9 and 11.9; in vitro binding potential (BP) ([2]; tgtg-old mouse brain tissue, single binding site model): 69 and 69.2±2.7 and 69.2; Bmax of the high-affinity component ([2]; tgtg-old tissue, two site binding model): 289.3 ± 123.9 fmol/mg; Kd ([2]; tgtg-old tissue, two site binding model, read-out: Kd of the high-affinity component): 5.7 ± 4.1 nM; in vitro binding potential (BP) ([2]; tgtg-young mouse brain tissue, single binding site model): 14.3±0.9 and 14.3; BP of the high-affinity component (APP/PS1 mouse brain): 78; BP of high-affinity binding sites (human brain): 636

— publication PMC3302888, “Small-Animal PET Imaging of Amyloid-Beta Plaques with [^11C]PiB and Its Multi-Modal Validation in an APP/PS1 Mouse Model of Alzheimer's Disease” (PLoS ONE, 2012)
